Patent publication US20250270200A1, “CTPS1 INHIBITORS AND USES THEREOF” (Nimbus Clotho, Inc., priority 2022, published 2025)
Like-named read-outs stand apart in the source and are kept apart here.

Target: T1, human CTPS1 (Homo sapiens, UniProt P17812)
T1 sequence (P17812 1-591): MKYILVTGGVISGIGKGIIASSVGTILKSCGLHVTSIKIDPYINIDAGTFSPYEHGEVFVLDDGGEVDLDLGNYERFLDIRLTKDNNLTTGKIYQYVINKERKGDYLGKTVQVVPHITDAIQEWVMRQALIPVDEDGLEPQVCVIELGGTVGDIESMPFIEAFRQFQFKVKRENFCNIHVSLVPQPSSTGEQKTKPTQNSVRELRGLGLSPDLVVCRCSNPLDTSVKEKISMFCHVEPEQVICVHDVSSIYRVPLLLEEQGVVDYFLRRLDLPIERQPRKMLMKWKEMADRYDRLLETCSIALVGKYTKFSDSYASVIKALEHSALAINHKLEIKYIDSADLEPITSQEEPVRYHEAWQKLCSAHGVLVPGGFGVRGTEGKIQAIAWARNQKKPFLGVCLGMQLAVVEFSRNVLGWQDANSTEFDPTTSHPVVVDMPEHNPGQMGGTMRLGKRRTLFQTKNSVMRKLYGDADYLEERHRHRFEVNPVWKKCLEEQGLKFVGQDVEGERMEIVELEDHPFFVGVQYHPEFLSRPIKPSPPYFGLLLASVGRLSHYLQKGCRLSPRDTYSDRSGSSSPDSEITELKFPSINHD
Experiment: ADP-Glo assay, human CTPS1 enzyme inhibition
Assay type: biochemical
Conditions: read-out: ADP-Glo_WT_hCTPS1—25 nM_IC50 (IC50)
Method: The enzyme inhibitory activities of the compounds of the invention against the target of interest were determined using the ADP-Glo™ assay (Promega). Assays for human CTPS1 and CTPS2 were performed in 1× assay buffer containing 50 mM HEPES (Life Technologies), 10 mM Mg2+, 5 mM KCl, 2 mM DTT, 0.01% F-127, pH to 7.4 accordingly. All reagents are from Sigma-Aldrich, unless specified otherwise. Purified human full length active N-terminal FLAG-8×HIS-TEV tagged CTPS1 (UniprotKB—P17812, […]-CTPS1[1-591]) was generated using a mammalian expression system at Viva Biotech (Shanghai) Ltd.
Purified human CTPS1 protein was prepared in 1× assay buffer to the final working protein concentration required for the reaction. A 2.5 μL volume per well of human CTPS 1 protein was mixed with 0.1 μL per well of test compound dissolved in DMSO and pre-incubated at 25 degrees C. for 10 minutes. 2.5 μL per well of the reaction precursors ATP (UltraPure ATP from ADP-Glo™ kit) and UTP were then added and pre-incubated for an additional 10 minutes at 25 degrees C. Finally, the reaction was initiated by the addition of 5 μL of the reaction precursors L-glutamine and GTP. The final concentration of all reaction components in the assay: ATP (120 μM), UTP (160 μM), GTP (60 μM), L-Glutamine (100 μM), DMSO (1%), hCTPS1 (25 nM). This mixture was incubated for an appropriate amount of time within the determined linear phase of the reaction at 25 degrees C. under sealed plate conditions with constant agitation at 500 revolutions per minute (rpm). ADP-Glo™ reagent was added for 60 minutes (10 μL per well) and subsequently ADP-Glo™ development reagent was added for 60 minutes (20 μL per well) prior to signal detection in a microplate reader (Envision Multilabel Reader, Perkin Elmer). Following each reagent addition over the course of the assay, assay plates were pulse centrifuged for 1 minute at 1000 rpm.
The enzyme converts ATP to ADP and the ADP-Glo™ reagent subsequently depletes any remaining ATP in the reaction system. The ADP-Glo™ detection reagents converts the ADP that has been produced by the enzyme back into ATP, which is then utilized as a substrate together with luciferin for the enzyme luciferase. Light generated by this chemiluminescent reaction is quantified and is directly proportional to the amount of ADP produced by the CTPS1 enzyme reaction. […]

[1] = wild-type human CTPS1, 25 nM enzyme, ADP-Glo
[2] = wild-type human CTPS1 25 nM, ATP 120 μM, UTP 160 μM, GTP 60 μM, L-glutamine 100 μM, 25 degrees C.

Structure (SMILES) | IC50 [1] [nM] | IC50 [2] [nM]
CCOc1cncc(-c2cnc(C(=O)NC(C[C@@H]3COCCN3C)c3cc(NS(=O)(=O)C4CC4)ccn3)s2)n1 (single isomer, unassigned) [I-103] | > 100 | 
CCOc1cncc(-c2cnc(C(=O)NC(c3cc(NS(=O)(=O)C4CC4)ccn3)C3CN(C)CCO3)s2)n1 (single isomer, unassigned) [I-105, N-((4-(cyclopropanesulfonamido)pyridin-2-yl)(4-methylmorpholin-2-yl)methyl)-5-(6-ethoxypyrazin-2-yl)thiazole-2-carboxamide] | 5 to 25 | 
CCOc1cncc(-c2cnc(C(=O)NC(c3cc(NS(=O)(=O)C4CC4)ccn3)C3CN(C)CCO3)s2)n1 (single isomer, unassigned) [I-106, N-((4-(cyclopropanesulfonamido)pyridin-2-yl)(4-methylmorpholin-2-yl)methyl)-5-(6-ethoxypyrazin-2-yl)thiazole-2-carboxamide] | 5 to 25 | 
CCOc1cncc(-c2cnc(C(=O)N[C@@H](CN3CCOCC3)c3cc(NS(=O)(=O)C4CC4)ncn3)s2)n1 (single isomer, unassigned) [I-247] | 5 to 25 | 
CCOc1cncc(-c2cnc(C(=O)N[C@H](c3cc(NS(=O)(=O)C4CC4)ncn3)C3CCOCC3)s2)n1 (single isomer, unassigned) [I-254] | 5 to 25 | 
CCOc1cncc(-c2cnc(C(=O)N[C@@H](c3cc(NS(=O)(=O)C4CC4)ncn3)C3CCOCC3)s2)n1 (single isomer, unassigned) [I-255] | 5 to 25 | 
CCOc1cncc(-c2cnc(C(=O)N[C@@H](c3cc(NS(=O)(=O)C4CC4)ccn3)[C@H](C)CN3CCCCC3)s2)n1 (stereo in doubt) [I-51, N-((1R,2R)-1-(4-(cyclopropanesulfonamido)pyridin-2-yl)-2-methyl-3-(piperidin-1-yl)propyl)-5-(6-ethoxypyrazin-2-yl)thiazole-2-carboxamide] | 5 to 25 | 
CCOc1cncc(-c2cnc(C(=O)N[C@@H](c3cc(NS(=O)(=O)C4CC4)ccn3)[C@@H](C)CN3CCCCC3)s2)n1 (stereo in doubt) [I-52, N-((1R,2S)-1-(4-(cyclopropanesulfonamido)pyridin-2-yl)-2-methyl-3-(piperidin-1-yl)propyl)-5-(6-ethoxypyrazin-2-yl)thiazole-2-carboxamide] | 50 to 100 | 
CCOc1cncc(-c2cnc(C(=O)N[C@H](c3cc(NS(=O)(=O)C4CC4)ccn3)[C@H](C)CN3CCCCC3)s2)n1 (stereo in doubt) [I-53, N-((1S,2R)-1-(4-(cyclopropanesulfonamido)pyridin-2-yl)-2-methyl-3-(piperidin-1-yl)propyl)-5-(6-ethoxypyrazin-2-yl)thiazole-2-carboxamide] | 5 to 25 | 
CCOc1cncc(-c2cnc(C(=O)N[C@H](c3cc(NS(=O)(=O)C4CC4)ccn3)[C@@H](C)CN3CCCCC3)s2)n1 (stereo in doubt) [I-54, N-((1S,2S)-1-(4-(cyclopropanesulfonamido)pyridin-2-yl)-2-methyl-3-(piperidin-1-yl)propyl)-5-(6-ethoxypyrazin-2-yl)thiazole-2-carboxamide] | 5 to 25 | 
CCOc1cncc(-c2cnc(C(=O)NCc3cc(NS(=O)(=O)C4CC4)ncn3)s2)n1 [I-5, N-((6-(cyclopropanesulfonamido)pyrimidin-4-yl)methyl)-5-(6-ethoxypyrazin-2-yl)thiazole-2-carboxamide] | 5 to 25 | 
O=C(NC(CCN1CCCCC1)c1cc(NS(=O)(=O)C2CC2)ccn1)c1ncc(-c2cnn3ccc(Cl)cc23)s1 (stereo not shown) [I-8, 5-(5-chloropyrazolo[1,5-a]pyridin-3-yl)-N-(1-(4-(cyclopropanesulfonamido)pyridin-2-yl)-3-(piperidin-1-yl)propyl)thiazole-2-carboxamide] | 25 to 50 | 

Further lines, results first:

IC50 [1] [nM] | IC50 [2] [nM] | Structure (SMILES)
 | 5 to 25 | COC[C@H](NC(=O)c1ncc(-c2cnn3ccc(Cl)cc23)s1)c1nccc(NS(=O)(=O)C2CC2)c1F (single isomer, unassigned) [II-1]
 | 5 to 25 | COC[C@@H](NC(=O)c1ncc(-c2cnn3ccc(Cl)cc23)s1)c1nccc(NS(=O)(=O)C2CC2)c1F (single isomer, unassigned) [II-2]
 | 5 to 25 | O=C(N[C@H](c1nccc(NS(=O)(=O)C2CC2)c1F)[C@H]1CCOC1)c1ncc(-c2cnn3ccc(Cl)cc23)s1 (single isomer, unassigned) [II-3]
 | 5 to 25 | O=C(N[C@@H](c1nccc(NS(=O)(=O)C2CC2)c1F)[C@@H]1CCOC1)c1ncc(-c2cnn3ccc(Cl)cc23)s1 (single isomer, unassigned) [II-4]
 | 5 to 25 | O=C(N[C@@H](c1nccc(NS(=O)(=O)C2CC2)c1F)[C@H]1CCOC1)c1ncc(-c2cnn3ccc(Cl)cc23)s1 (single isomer, unassigned) [II-5]
 | 5 to 25 | O=C(N[C@H](c1nccc(NS(=O)(=O)C2CC2)c1F)[C@@H]1CCOC1)c1ncc(-c2cnn3ccc(Cl)cc23)s1 (single isomer, unassigned) [II-6]
 | 5 to 25 | CCOc1cncc(-c2cnc(C(=O)N[C@@H](COC)c3cc(NS(=O)(=O)C4CC4)ncn3)s2)n1 (single isomer, unassigned) [II-7]
 | 5 to 25 | CCOc1cncc(-c2cnc(C(=O)N[C@H](COC)c3cc(NS(=O)(=O)C4CC4)ncn3)s2)n1 (single isomer, unassigned) [II-8]
 | 5 to 25 | COC[C@H](NC(=O)c1ncc(-c2cnn3ccc(Cl)cc23)s1)c1nccc(NS(=O)(=O)C2CC2)n1 (single isomer, unassigned) [II-9]
 | 25 to 50 | COC[C@@H](NC(=O)c1ncc(-c2cnn3ccc(Cl)cc23)s1)c1nccc(NS(=O)(=O)C2CC2)n1 (single isomer, unassigned) [II-10]
 | 25 to 50 | CCOc1cncc(-c2cnc(C(=O)N[C@@H](c3cccc(NS(=O)(=O)C(F)F)c3)[C@@H](C)CN3CCCCC3)s2)n1 (single isomer, unassigned) [II-11]
 | 5 to 25 | CCOc1cncc(-c2cnc(C(=O)N[C@@H](c3cccc(NS(=O)(=O)C(F)F)c3)[C@H](C)CN3CCCCC3)s2)n1 (single isomer, unassigned) [II-12]
 | > 100 | CCOc1cncc(-c2cnc(C(=O)N[C@H](c3cccc(NS(=O)(=O)C(F)F)c3)[C@H](C)CN3CCCCC3)s2)n1 (single isomer, unassigned) [II-13]
 | 50 to 100 | CCOc1cncc(-c2cnc(C(=O)N[C@H](c3cccc(NS(=O)(=O)C(F)F)c3)[C@@H](C)CN3CCCCC3)s2)n1 (single isomer, unassigned) [II-14]
 | 5 to 25 | O=C(N[C@H](c1cc(NS(=O)(=O)C2CC2)ccn1)C1CCOCC1)c1nnc(-c2cnn3ccc(Cl)cc23)s1 (single isomer, unassigned) [II-15]
 | 5 to 25 | O=C(N[C@@H](c1cc(NS(=O)(=O)C2CC2)ccn1)C1CCOCC1)c1nnc(-c2cnn3ccc(Cl)cc23)s1 (single isomer, unassigned) [II-16]
 | 5 to 25 | CCOc1cncc(-c2cnc(C(=O)N[C@H](c3nccc(NS(=O)(=O)C4CC4)c3F)[C@H]3CCOC3)s2)n1 (single isomer, unassigned) [II-17]
 | 5 to 25 | CCOc1cncc(-c2cnc(C(=O)N[C@H](c3nccc(NS(=O)(=O)C4CC4)c3F)[C@@H]3CCOC3)s2)n1 (single isomer, unassigned) [II-18]
 | 5 to 25 | CCOc1cncc(-c2cnc(C(=O)N[C@@H](c3nccc(NS(=O)(=O)C4CC4)c3F)[C@@H]3CCOC3)s2)n1 (single isomer, unassigned) [II-19]
